# Results from ChEMBL document CHEMBL1201862, “PubChem BioAssay data set” (2004).
# The source made the active and inactive calls.
# What was measured:
# [1] = target: T1, DNA repair protein RAD52 homolog (Homo sapiens, UniProt P43351); format: functional, biochemical
# T1 sequence (P43351 whole entry): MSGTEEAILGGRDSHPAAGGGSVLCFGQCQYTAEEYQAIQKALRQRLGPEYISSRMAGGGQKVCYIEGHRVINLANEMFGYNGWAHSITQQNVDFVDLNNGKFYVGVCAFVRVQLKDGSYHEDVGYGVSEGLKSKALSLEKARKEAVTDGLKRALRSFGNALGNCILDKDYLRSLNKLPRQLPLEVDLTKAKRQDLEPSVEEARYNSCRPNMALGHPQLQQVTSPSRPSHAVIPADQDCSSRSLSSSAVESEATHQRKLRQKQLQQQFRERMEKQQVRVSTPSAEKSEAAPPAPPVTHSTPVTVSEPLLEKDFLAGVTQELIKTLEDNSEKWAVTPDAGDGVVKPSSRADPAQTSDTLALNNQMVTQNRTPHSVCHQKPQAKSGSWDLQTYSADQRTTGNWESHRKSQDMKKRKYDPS
# [2] = target: T2, Rac GTPase-activating protein 1 (Homo sapiens, UniProt Q9H0H5); assay: MgcRacGAP GTPase-activating activity inhibitors, confirmation, biochemical, ADP Hunter fluorescence, primary and confirmatory (AID 624330); format: functional
# T2 sequence (Q9H0H5 whole entry): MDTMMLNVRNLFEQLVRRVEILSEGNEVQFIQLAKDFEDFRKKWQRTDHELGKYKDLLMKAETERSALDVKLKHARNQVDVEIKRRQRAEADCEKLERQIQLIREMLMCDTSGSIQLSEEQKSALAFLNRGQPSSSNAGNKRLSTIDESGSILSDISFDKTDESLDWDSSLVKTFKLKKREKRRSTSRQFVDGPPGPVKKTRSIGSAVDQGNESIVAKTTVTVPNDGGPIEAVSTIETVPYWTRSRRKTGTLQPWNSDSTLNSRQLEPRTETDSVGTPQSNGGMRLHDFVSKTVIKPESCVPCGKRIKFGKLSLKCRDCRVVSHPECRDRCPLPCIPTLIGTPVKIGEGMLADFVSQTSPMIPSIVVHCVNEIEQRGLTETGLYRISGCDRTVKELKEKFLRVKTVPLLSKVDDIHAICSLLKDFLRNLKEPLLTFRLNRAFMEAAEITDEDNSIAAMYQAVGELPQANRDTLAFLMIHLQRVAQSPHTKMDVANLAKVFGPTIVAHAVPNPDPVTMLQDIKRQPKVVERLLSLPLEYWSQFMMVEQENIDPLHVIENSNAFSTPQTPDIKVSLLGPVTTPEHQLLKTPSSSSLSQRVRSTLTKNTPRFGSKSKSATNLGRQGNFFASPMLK
# Fatty acid synthase [3] = target: T3, Fatty acid synthase (Homo sapiens, UniProt P49327); assay: FAS thioesterase domain inhibitors, dose response, biochemical, kinetic fluorescence intensity (AID 624326); format: functional;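 note: rate of fluorescence rise from hydrolysis of a fluorogenic O-methyl fluorescein ester substrate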
# T3 sequence (P49327 whole entry, the tested form may be a part): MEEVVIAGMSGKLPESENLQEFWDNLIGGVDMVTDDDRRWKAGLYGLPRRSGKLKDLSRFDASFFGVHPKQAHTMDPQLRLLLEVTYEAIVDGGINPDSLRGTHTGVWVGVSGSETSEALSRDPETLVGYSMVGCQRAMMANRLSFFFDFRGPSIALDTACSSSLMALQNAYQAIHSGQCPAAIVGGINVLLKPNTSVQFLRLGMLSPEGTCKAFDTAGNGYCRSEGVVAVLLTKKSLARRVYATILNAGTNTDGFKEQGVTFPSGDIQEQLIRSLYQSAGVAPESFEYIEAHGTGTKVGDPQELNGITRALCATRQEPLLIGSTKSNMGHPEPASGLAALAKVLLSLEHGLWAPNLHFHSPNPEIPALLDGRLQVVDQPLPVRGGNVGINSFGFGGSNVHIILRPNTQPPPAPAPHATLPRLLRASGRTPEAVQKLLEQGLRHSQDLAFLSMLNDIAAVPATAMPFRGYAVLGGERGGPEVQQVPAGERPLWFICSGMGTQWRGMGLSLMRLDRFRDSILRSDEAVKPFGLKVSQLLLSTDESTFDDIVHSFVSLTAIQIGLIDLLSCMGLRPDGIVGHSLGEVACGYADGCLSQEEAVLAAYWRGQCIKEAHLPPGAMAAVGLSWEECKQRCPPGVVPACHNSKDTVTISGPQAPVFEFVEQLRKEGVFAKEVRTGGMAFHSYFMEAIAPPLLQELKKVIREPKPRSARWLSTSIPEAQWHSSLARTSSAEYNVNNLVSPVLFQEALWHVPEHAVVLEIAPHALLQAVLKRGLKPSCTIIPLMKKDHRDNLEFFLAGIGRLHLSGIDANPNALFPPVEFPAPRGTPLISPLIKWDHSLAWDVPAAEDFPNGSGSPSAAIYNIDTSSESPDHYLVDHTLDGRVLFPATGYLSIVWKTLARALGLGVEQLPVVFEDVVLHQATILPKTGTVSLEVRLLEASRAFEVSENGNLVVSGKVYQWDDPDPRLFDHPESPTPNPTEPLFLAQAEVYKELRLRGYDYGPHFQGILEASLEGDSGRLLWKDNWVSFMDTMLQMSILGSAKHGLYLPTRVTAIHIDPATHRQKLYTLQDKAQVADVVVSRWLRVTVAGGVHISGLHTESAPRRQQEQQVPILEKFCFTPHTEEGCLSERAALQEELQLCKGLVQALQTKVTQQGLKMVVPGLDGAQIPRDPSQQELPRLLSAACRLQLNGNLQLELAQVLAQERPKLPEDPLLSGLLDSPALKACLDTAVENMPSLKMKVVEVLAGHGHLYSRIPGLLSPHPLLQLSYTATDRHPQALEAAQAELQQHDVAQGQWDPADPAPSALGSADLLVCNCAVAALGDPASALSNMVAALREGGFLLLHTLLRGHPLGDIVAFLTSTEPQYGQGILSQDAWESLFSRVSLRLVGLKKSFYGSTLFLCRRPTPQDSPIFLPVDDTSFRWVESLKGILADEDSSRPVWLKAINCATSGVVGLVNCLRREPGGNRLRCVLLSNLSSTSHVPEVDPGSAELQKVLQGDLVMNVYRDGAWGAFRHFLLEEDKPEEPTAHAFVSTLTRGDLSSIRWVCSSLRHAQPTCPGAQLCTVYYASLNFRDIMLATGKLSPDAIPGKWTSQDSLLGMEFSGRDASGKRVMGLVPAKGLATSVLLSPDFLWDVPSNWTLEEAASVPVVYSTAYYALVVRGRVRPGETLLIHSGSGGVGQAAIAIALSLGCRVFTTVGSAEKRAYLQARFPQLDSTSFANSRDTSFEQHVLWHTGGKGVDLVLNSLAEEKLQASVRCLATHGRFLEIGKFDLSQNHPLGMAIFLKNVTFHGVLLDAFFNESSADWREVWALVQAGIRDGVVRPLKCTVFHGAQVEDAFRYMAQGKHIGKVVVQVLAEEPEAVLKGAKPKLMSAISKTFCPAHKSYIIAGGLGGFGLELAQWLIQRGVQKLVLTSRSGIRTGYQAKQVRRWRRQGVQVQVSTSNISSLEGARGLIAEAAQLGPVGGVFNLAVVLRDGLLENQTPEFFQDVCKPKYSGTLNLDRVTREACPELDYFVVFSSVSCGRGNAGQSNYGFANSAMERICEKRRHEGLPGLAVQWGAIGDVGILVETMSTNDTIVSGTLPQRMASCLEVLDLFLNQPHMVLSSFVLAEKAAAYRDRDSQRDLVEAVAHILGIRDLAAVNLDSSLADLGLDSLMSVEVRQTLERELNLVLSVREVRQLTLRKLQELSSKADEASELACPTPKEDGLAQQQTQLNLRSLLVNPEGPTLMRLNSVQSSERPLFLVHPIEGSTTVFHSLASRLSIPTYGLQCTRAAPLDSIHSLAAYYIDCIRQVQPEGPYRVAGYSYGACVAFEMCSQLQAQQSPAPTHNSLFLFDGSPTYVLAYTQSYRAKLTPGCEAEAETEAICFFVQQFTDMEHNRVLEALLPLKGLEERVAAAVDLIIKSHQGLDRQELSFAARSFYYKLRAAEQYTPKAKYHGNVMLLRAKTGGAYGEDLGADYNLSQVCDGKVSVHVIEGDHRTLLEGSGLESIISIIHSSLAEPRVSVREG
# Fatty acid synthase [4] = target: T3, Fatty acid synthase; assay: FAS thioesterase domain inhibitors, dose response, biochemical, endpoint fluorescence intensity, uHTS hits (AID 624327); format: functional;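 note: fluorescence from hydrolysis of an O-methyl fluorescein acyl ester substrate by the enzyme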
# Kallikrein-7 = Kallikrein-7 (Homo sapiens, UniProt P49862); assay: Fluorescence Intensity-based biochemical primary high throughput dose response assay to identify activators of kallikrein-7 (K7) zymogen.
# Kallikrein-7, sequence (P49862 whole entry): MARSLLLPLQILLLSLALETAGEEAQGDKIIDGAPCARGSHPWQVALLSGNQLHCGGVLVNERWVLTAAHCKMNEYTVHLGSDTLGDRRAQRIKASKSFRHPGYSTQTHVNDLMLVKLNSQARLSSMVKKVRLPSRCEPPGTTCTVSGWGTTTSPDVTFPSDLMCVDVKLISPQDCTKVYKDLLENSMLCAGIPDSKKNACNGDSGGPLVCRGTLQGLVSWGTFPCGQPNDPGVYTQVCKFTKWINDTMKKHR
# Prothrombin = Prothrombin (Homo sapiens, UniProt P00734); assay: Thrombin 1536 HTS Dose Response Confirmation. [Related pubchem assays: 1046 (Thrombin 1536 HTS; hits were confirmed in this assay)]; format: functional
# [5] = HEK293T cytotoxicity, dose response, cytotoxicity control for miR-122 modulator project, cell-based, inhibitor set, cherry-pick, set 2 (AID 720697); format: functional
# [6] = target: T4, Nuclear receptor subfamily 0 group B member 1 (Homo sapiens, UniProt P51843); format: functional, cell-based;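 note: HEK293T cells transfected with SF-1 and DAX-1 plus StAR promoter luciferase reporter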
# T4 sequence (P51843 whole entry): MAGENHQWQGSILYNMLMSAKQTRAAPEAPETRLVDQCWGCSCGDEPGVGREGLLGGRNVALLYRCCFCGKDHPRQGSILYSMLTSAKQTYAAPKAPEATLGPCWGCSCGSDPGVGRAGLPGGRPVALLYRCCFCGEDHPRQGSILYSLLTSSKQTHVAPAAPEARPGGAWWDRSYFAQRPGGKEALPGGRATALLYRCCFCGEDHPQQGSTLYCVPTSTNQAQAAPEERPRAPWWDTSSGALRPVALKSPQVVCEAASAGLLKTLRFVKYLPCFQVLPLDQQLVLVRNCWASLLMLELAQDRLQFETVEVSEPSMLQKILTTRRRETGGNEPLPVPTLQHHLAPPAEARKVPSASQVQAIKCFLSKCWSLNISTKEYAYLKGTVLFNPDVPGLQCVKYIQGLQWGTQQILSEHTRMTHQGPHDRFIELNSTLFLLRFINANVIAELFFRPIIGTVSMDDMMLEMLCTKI
# cells = format: functional, cell-based
smiles,measurement,setting,value
CN1CCN(CCCNCc2cn(CCC#N)c3ccccc23)CC1,AC50,[1],4.32 µM (active)
same,IC50,[2],64.3 µM (active)
Cc1cc(C(C)(C)C)cc(C)c1COC(=O)CN1C(=O)NC2(CCCC2)C1=O,IC50,Fatty acid synthase [3],13.2 µM (active)
same,IC50,Fatty acid synthase [4],15.8 µM (active)
COC(=O)c1ccc(C2C(C#N)=C(C)N=C3CC(C)(C)CC(O)=C32)cc1 (stereo unspecified),EC50,Kallikrein-7,20.8 µM (inactive)
CCC(C)NCCOc1cc(C)cc(C)c1C (stereo unspecified),IC50,Prothrombin,> 50 µM (not active)
N#Cc1c(NC(=O)COC(=O)c2nccnc2N)sc2c1CCCC2,EC50,Kallikrein-7,> 69.5 µM (inactive)
c1ccc(CCCNCCCn2cnc3c(OCc4ccccc4)ncnc32)cc1,AC50,[5],7.5 µM (active)
COc1ccccc1C=C1CCc2ccccc2C1=O,IC50,[6],> 67.5 µM (inactive)
same,IC50,cells,> 67.5 µM (inactive)
COc1ccccc1-c1nnc2n1N=C(c1ccc3c(c1)OCO3)CS2,IC50,[6],> 67.6 µM (inactive)
same,IC50,cells,> 67.6 µM (inactive)
CO[C@@H]1CN(C)C(=O)c2cc(NC(=O)c3cccc(Oc4ccccc4)c3)ccc2OC[C@H](C)NC[C@@H]1C,AC50,[5],15.1 µM (active)
COc1ccc2c(c1)CCC/C2=N\NC(=O)c1ccoc1C,IC50,[6],> 67.5 µM (inactive)
same,IC50,cells,> 67.5 µM (inactive)
CCOc1cc(-c2nccc3cc(OC)c(OC)cc23)cc(OCC)c1OCC [OCTAVERINE],AC50,[5],1.89 µM (active)
